Source: patent publication US20180008573A1, “METHODS AND COMPOSITIONS FOR REDUCING DAMAGE ASSOCIATED WITH OXIDATIVE PHOSPHORYLATION” (USANA Health Sciences, Inc., priority 2016, published 2018)

What was measured:
Type in all cases: cell-based
[1] = biological target: T1, human PPARα (Homo sapiens, UniProt Q07869); assay: PPARα agonist reporter assay (Gal4 hybrid receptor, luciferase, CHO cells)
T1 construct: expressed in transfected cells; host or cells: CHO
T1 sequence (Q07869 239-466 limits assumed): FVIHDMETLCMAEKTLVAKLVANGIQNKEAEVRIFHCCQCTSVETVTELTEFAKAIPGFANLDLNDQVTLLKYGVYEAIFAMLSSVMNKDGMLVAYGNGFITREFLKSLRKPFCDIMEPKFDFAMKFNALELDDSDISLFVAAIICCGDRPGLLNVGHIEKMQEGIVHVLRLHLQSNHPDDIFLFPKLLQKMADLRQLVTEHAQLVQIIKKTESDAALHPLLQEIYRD

[2] = biological target: T2, human PPARδ (Homo sapiens, UniProt Q03181); assay: PPARδ agonist reporter assay (Gal4 hybrid receptor, luciferase, CHO cells)
T2 construct: expressed in transfected cells; host or cells: CHO
T2 sequence (Q03181 211-439 limits assumed): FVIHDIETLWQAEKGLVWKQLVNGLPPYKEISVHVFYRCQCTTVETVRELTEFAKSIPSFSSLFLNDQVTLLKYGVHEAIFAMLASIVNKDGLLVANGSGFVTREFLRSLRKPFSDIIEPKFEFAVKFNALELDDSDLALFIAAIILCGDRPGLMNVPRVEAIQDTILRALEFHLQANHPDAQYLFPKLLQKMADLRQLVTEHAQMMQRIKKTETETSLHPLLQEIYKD

[3] = biological target: T3, human PPARγ (Homo sapiens, UniProt P37231); assay: PPARγ agonist reporter assay (Gal4 hybrid receptor, luciferase, CHO cells)
T3 construct: expressed in transfected cells; host or cells: CHO
T3 sequence (P37231 238-503 limits assumed): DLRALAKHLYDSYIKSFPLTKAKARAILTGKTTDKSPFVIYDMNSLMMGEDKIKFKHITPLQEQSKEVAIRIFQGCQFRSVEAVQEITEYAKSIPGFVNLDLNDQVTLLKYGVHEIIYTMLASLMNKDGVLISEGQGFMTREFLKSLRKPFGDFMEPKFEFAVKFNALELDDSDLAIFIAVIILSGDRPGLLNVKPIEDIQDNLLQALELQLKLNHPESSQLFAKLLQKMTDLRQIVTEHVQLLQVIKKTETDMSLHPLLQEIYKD

PPARα Fold-Activation ([1]; 1.42 μg/ml active ingredient): 1.4 fold
PPARα Fold-Activation ([1]; 4.25 μg/ml active ingredient): 1.3 fold
PPARα Fold-Activation ([1]; 12.7 μg/ml active ingredient): 1.2 fold
PPARα Fold-Activation ([1]; 38.23 μg/ml active ingredient): 1.5 fold
PPARα Fold-Activation ([1]; 114.70 μg/ml active ingredient): 2.3 fold
agonist activity against human PPARα ([1]; at the concentrations tested): very low-level agonist activity
PPARδ Fold-Activation ([2]; 1.42 μg/ml active ingredient): 1.5 fold
PPARδ Fold-Activation ([2]; 4.25 μg/ml active ingredient): 1.1 fold
PPARδ Fold-Activation ([2]; 12.7 μg/ml active ingredient): 0.80 fold
PPARδ Fold-Activation ([2]; 38.23 μg/ml active ingredient): 0.52 fold
PPARδ Fold-Activation ([2]; 114.70 μg/ml active ingredient): 0.29 fold
PPARγ Fold-Activation ([3]; 1.42 μg/ml active ingredient): 1.1 fold
PPARγ Fold-Activation ([3]; 4.25 μg/ml active ingredient): 1.1 fold
PPARγ Fold-Activation ([3]; 12.7 μg/ml active ingredient): 1.3 fold
PPARγ Fold-Activation ([3]; 38.23 μg/ml active ingredient): 1.4 fold
PPARγ Fold-Activation ([3]; 114.70 μg/ml active ingredient): 3.4 fold
agonist activity against human PPARγ ([3]; at the concentrations tested): very low-level agonist activity
induction concentration (PPARγ) ([3]; in the mixture): 1.22 µg/mL
induction concentration (PPARγ) ([3]; used alone): 114.8 µg/mL
SMILES: O=C(O)CCCCC1CCSS1 (racemic) [Alpha lipoic acid, alpha lipoic acid]
